Experimental findings from EP1978972B1, “USE OF ALKYLGLUCOSIDE ESTERS AS BETA-DEFENSIN INDUCERS” (Pierre Fabre Dermo-Cosmétique, priority 2006, dated 2007) are described below.

Experiment [1] relates to hBD-3. The experiment is described as follows: Immunohistochemistry of hBD-3 peptide in reconstructed gingival epithelium. The experiment is classed as cell-based, human. As to conditions: vs untreated sample, qualitative. The procedure:
(§1) Les échantillons inclus dans la résine Tissue Tek® sont coupés à froid (température de la chambre à -25°C et la température du porte-objet à - 28°C) à l'aide d'un cryostat (Leica CM 3050s, Nussloch). Les cryocoupes d'une épaisseur de 5 µm sont récupérées sur des lames porte-objet prétraitées, puis mises à sécher environ 2 h à température ambiante et stockées à -20°C pour une utilisation ultérieure. Avant de réaliser l'immuno-marquage, les coupes sont fixées à l'acétone à -20°C pendant 10 min, séchées et conservées à -20°C. Lors d'une première étape, les coupes sont hydratées puis incubées avec les anticorps primaires dirigés contre les peptides d'intérêt dilués dans du PBS. Les anticorps primaires utilisés sont les suivants : • Goat Anti-human BD-2 (500-P161G, Peprotech Inc) dilué au 1/50^e • Rabbit Anti-human defensin-3 (AB3478, Chemicon international) dilué au 1/1000^e • Rabbit Anti-human LL37 (G-075-06, Phoenix Pharmaceuticals Inc) dilué au 1/50^e
(§2) Pour révéler le complexe Antigène-Anticorps, le kit DAKO LSAB® (DAKO Corporation) est utilisé selon les recommandations du fournisseur. La révélation est réalisée à l'aide d'un substrat de la péroxydase : la 3,3'diaminobenzidine (DAB) (DAKO Corporation). […]

For the next experiment, the system named is hBD-2. The experiment is described as follows: Immunohistochemistry of hBD-2 peptide in skin explants. The experiment is classed as cell-based, human. The note with it: skin explant, qualitative. On the procedure:
as §1, §2

Experiment [2] has as its system S. aureus. The experiment is described as follows: Adhesion of S. aureus on skin explant (modified Franz cell), count of adherent bacteria. The experiment is classed as cell-based, Staphylococcus aureus. The source says: Pour révéler le complexe Antigène-Anticorps, le kit DAKO LSAB® (DAKO Corporation) est utilisé selon les recommandations du fournisseur. La révélation est réalisée à l'aide d'un substrat de la péroxydase : la 3,3'diaminobenzidine (DAB) (DAKO Corporation). La réaction enzymatique est révélée par une coloration brune. • ➢L'adhésion des micro-organismes est réalisée dans une cellule à double compartimentation, de type cellule de Franz modifiée. • ➢Une suspension de S.aureus (CIP 53.154) équivalente à 0,5.10^7 micro-organismes est introduite au sein du compartiment supérieur de la cellule. Le dispositif est incubé de 2 h à 37°C sous une atmosphère à 5 % de CO2. A la fin de cette période d'incubation, le surnageant est retiré afin d'éliminer les bactéries non adhérentes. Les échantillons de peau sont ensuite rincés deux fois avec 1 ml de mélange DMEM/HAMF12. Un dénombrement bactérien à l'issue de cette étape donne la proportion de bactéries ayant adhéré à l'explant (T+2 h). Un témoin est réalisé dans le but de déterminer l'adhésion non spécifique des bactéries. • ➢La stimulation de l'expression des β-défensines cutanées précède l'étape d'adhésion. Son objectif est d'étudier l'impact de l'induction des peptides antimicrobiens par des actifs potentiels de type « alkyle mono- ou di-ester d'α,β-butylglucoside » sur l'adhésion de souches bactériennes. Le traitement est effectué en topique ou en systémique. Le temps de stimulation des explants cutanés est de 24 h à 37°C en présence de 5 % de CO2.
Pour analyse, les explants sont retirés de leur cellule, des punchs de diamètres différents (3 mm, 4 mm et 6 mm) sont effectués pour un test MTT de survie, les marquages immuno-histologiques et les analyses des transcrits par RT-PCR. Le reste de peau est utilisé pour une estimation de la flore bactérienne adhérente.
Le dénombrement de la flore bactérienne adhérente exogène par unité de surface de peau a été effectué selon deux méthodes : • par dénombrement bactérien sur milieu solide • par comptage de la radioactivité émise (la souche contaminante étant marquée au H^3) est effectuée. […]
Après une application topique de 5 h et plusieurs rinçages de la surface épidermique d'un explant cutané, l'effet du traitement par l'α,β-LBG brut sur l'adhésion de S.aureus sur ce même explant a été quantifié par le dénombrement des germes adhérents à l'issue d'une mise en contact de 2 h. […]
Après application topique et plusieurs rinçages de la surface épidermique des explants cutanés, l'effet du traitement par les isoformes de l'ester de laurate de butylglucoside pur à 90 %, séparées, α seul, β seul, ou en mélange α,β-LBG (56 % α/44 % β) sur l'adhésion de S. aureus sur l'épiderme a été comparé après quantification des germes adhérents par dénombrement.

Experiment [3] deals with hBD-3. The experiment is described as follows: Immunohistochemistry of hBD-3 peptide in skin explants. The experiment is classed as cell-based, human. The note with it: skin explant, qualitative. On the procedure:
as §1, §2

For experiment [4], the system named is S. aureus. The experiment is described as follows: Direct microbicidal activity and direct effect on adhesion of S. aureus. Further details: species or system Staphylococcus aureus. The note with it: at the concentrations used.
Experiment [5] has as its system hBD-3. The experiment is described as follows: Immunohistochemistry of hBD-3 peptide in gingival explant, systemic treatment. The note with it: 30 µg/ml, 5 h, qualitative. The experiment is classed as cell-based, human. The procedure: Les explants gingivaux humains de taille variable et petite sont rincés dix fois dans du PBS sans antibiotiques puis mis en culture sur une grille afin d'éviter leur immersion totale, posés côté derme.
as §1
Pour révéler le complexe Antigène-Anticorps, le kit DAKO LSAB® (DAKO Corporation) est utilisé selon les recommandations du fournisseur. […]

In experiment [6] the test system is Staphylococcus epidermidis. The experiment is described as follows: Development of endogenous commensal S. epidermidis on skin explant during 24 h after adhesion step. The experiment is classed as cell-based. The note with it: systemic treatment, in words. On the procedure: Il est par ailleurs possible d'observer la colonisation de l'explant par le germe exogène (S. aureus) après l'étape d'adhésion pendant 24 h. […] L'effet inverse est observé avec le traitement par le TNF-α, cytokine pro-inflammatoire, qui après avoir entraîné une forte chute de l'adhésion de S. aureus (Cf.III.4.2) ne permet pas une limitation de la croissance du germe pathogène sur l'explant et ceci au dépend du germe commensal S. epidermidis.
La figure 12 annexée illustre la comparaison de la colonisation d'une souche contaminante, S. aureus, avec celle d'une souche commensale, S. epidermis.

laurate de butylglucoside [αβ-LBG brut]: in the experiment on hBD-3 [1], the “production du peptide hBD-3 par les cellules de l'épithélium gingival reconstruit” value is “confirmer la production du peptide hBD-3”. Besides, the “production du peptide hBD-2 dans les couches supérieures de l'épiderme” value with hBD-2 (systemic, 24 h) is given as “stimulation de la production”; in the experiment on hBD-2 (topical), “stimulation de la production”. In addition, the “diminution de l'adhésion des germes sur l'explant” value with S. aureus [2] (systemic 30 µg/ml, separate compartments, vs unstimulated control) was 11%. In addition, the “baisse de l'adhésion de S. aureus” value in the experiment with S. aureus [2] (topical 30 µg/ml for 5 h, then 2 h contact, vs untreated control) was found to be 20%. Moreover, the “production du peptide hBD-3 dans les couches supérieures de l'épiderme” value in the experiment on hBD-3 [3] (systemic, 24 h) is recorded as “stimulation de la production”; in the experiment on hBD-3 [3] (topical) it was “stimulation de la production”. For the same substance, in the experiment on S. aureus [4], the activité microbicide directe entry was “ni activité microbicide directe”. Further, in the experiment on S. aureus [4], the “direct effect on adhésion de S. aureus” value is “ni effet sur l'adhésion de S. aureus”. Further, in the experiment with hBD-3 [5], the “production du peptide hBD-3 dans les couches supérieures de l'épithélium gingival” value is given as “induction de la production du peptide hBD-3”. Besides, the “développement du germe commensal S. epidermidis” value in experiment [6] is reported as “favorise à l'inverse le développement d'un germe commensal endogène”.
